The record followed here is publication PMC4467461, “Small-molecule activation of SERCA2a SUMOylation for the treatment of heart failure” (Nature Communications, 2015).

Molecules are shown by their SMILES.

Assay [1] relates to mouse heart tissue (sham and TAC). The assay is described as follows: Molecular analysis of heart tissue of N106-infused mice (western blot, immunoprecipitation, ATPase activity). The format is in vivo. On the procedure: Protein extracts (20∼50 μg) were obtained from isolated cardiomyocytes, which was lysed in RIPA buffer (R&D Systems Inc., MN, USA) contained protease inhibitors (Complete mini, Roche Diagnostics, IN, USA) and 20 mM NEM (Sigma-Aldrich). For SERCA2a SUMOylation assays, cardiac protein extracts were immunoprecipitated with a SUMO-1 agarose resin (Santa Cruz Biotechnology Inc., CA, USA) for overnight at 4 °C. The resins were washed with cold lysis buffer three times. The immunocomplexes were then resolved by SDS–PAGE and western blot analysis was performed using a SERCA2a-specific antibody. For general western blotting, cardiac proteins (10∼50 μg) were separated on SDS–PAGE gel, transferred to nitrocellulose membrane (Bio-Rad, CA, USA) and blotted with the following primary antibodies: SUMO-1 (1:1,000, R&D Systems Inc.), Ubc9 (1:1,000, R&D Systems Inc.), SAE2 (1:1,000, Abcam Inc., MA, USA), SERCA2a (1:3,000, 21st Century Biochemicals, MA, USA), PLN (1:5,000, Badrilla Ltd., UK), PLN phosphorylation at serine-16 (1:5,000, Badrilla Ltd.), RyR2 (1:5,000, Abcam Inc.), NCX (1:1,000, Novus Biologicals, CO, USA), glyceraldehyde 3-phosphate (1:10,000, Sigma-Aldrich), GATA4 (1:1,000, Millipore, NY, USA) and Sp1 (1:500, Millipore). Secondary antibodies anti-mouse IgG-HRP (1:10,000) and anti-rabbit IgG-HRP (1:10,000) were purchased from Sigma-Aldrich. The immunoreactive bands were visualized by a supersignal chemiluminescence detection reagent (Pierce Biotechnology, IL, USA). Full scans of western blots are presented in Supplementary Fig. 14.
SERCA2a ATPase activity was determined using a coupled enzymes assay including pyruvate kinase/lactate dehydrogenase/NADH-coupled reactions. Microsomes were enriched by differential density centrifugation. The cardiac cells and tissues were homogenized on ice in homogenization buffer (250 mM sucrose (Sigma-Aldrich), 5 mM HEPES pH7.0 (Sigma-Aldrich), 1 mM phenylmethyl sulfonyl fluoride (Sigma-Aldrich), protease inhibitor cocktail (Roche Life Science, IN, USA)). The homogenates were centrifuged at 1,000g for 10 min at 4 °C, then the supernatants were collected and centrifuged at 12,000g for 15 min at 4 °C. The supernatants were transferred to ultracentrifuge tubes and centrifuged for 1 h at 140,000g at 4 °C (Optima XE-100, Beckman Coulter). The pellets were resuspended in homogenization buffer to determine protein concentration and calcium-dependent ATPase activity assay. Protein concentration was measured with a 2-D Quant Kit (GE Healthcare Life Sciences, PA, USA). The ATPase activity were measured at 25 °C in 50 mM MOPS (Boston Bioproducts, MA, USA), 100 mM KCl (Boston Bioproducts), 5 mM MgCl2 (Boston Bioproducts), 1 mM EDTA (Boston Bioproducts) at pCa 5.0 by using a coupled enzyme system consisting of pyruvate kinase and lactate dehydrogenase, and monitoring the oxidation of the reduced form of NADH at […].
Supplementary Figure 9. Molecular analysis in N106 treated mice. (a-d) Representative western blots and protein quantification of select cardiac proteins. Mice heart tissue samples were obtained after external jugular vein infusion with vehicle or 10 mg.kg-1of N106 from sham and TAC mice. The experiments shown are representative of three independent Western blots with […]
(also on this page, place not known: TACSham TACSham TACSham SUMO-1 Conjugates (relative fold) N106Vehicle TACSham Veh RyR2/GAPDH (relative fold)Vehicle N106Vehicle Veh TACSham Veh 0.5 NCX/GAPDH (relative fold) NSNS N106Vehicle N106Vehicle N106Vehicle 200ATPase activity (% of control)Vehicle N106Vehicle TAC PLN/GAPDH (relative fold) P-PLN/PLN (relative fold) MW) […]
similar results. (e) The enzyme activity of SERCA2a was determined by using the same set of heart tissue samples. (f) SUMO-1 conjugate was measured by Western blot analysis with an anti-SUMO-1 antibody. Band intensity was quantified by Image J software. The amount of GAPDH was used as a normalization control. […]
For orientation: A western blot detects proteins with antibodies after separation by electrophoresis.

Assay [2] concerns HEK-293 cells co-transfected with SERCA2a and SAE1 mutants (Q312A and V315F). The assay is described as follows: N106-induced SERCA2a SUMOylation in HEK-293 cells overexpressing SAE1 mutants. The format is cell-based. On the procedure:
Supplementary Figure 4. Effects of overexpressing SAE1 mutants on N106-induced SERCA2a SUMOylation. (a) HEK-293 cells were co-transfected with SERCA2a and SAE1 wild type or SAE1 mutants (Q312A and V315F) for 24 hours. And then the transfecting HEK-293 cells were incubated with different concentration of N106 for 24 hours. The level of SERCA2a SUMOylation was determined by immunoprecipitation and following with Western blotting. (b) The levels of SAE1 overexpression were determined by Western blotting with anti- […]
(1 picture or pasted object on this page, not shown here)

For the compound `COc1ccc(-c2nnc(Nc3nc4c(OC)cccc4s3)o2)cc1` [Compound N106, N-(4-methoxybenzo[d]thiazol-2-yl)-5-(4-methoxyphenyl)-1,3,4-oxadiazol-2-amine], in assay [1] (10 mg kg^−1), the “GATA4 SUMOylation and its protein levels” value is reported as “no significant effect”; the “protein levels of Sp1” value was “not changed”. For the same compound, in assay [1] (10 mg kg^−1 infusion), the SERCA2a protein levels result is recorded as “not significantly changed”; the “protein levels and phosphorylation states of phospholamban” value was “Neither protein levels nor phosphorylation states of phospholamban were changed”; the “protein levels of cardiac ryanodine receptor and sodium–calcium exchanger” value is “not significant changes”; the “whole SUMO-1 conjugates” value is “not significantly changed”. Further, the “SUMOylated specificity protein 1 (Sp1) form” value in assay [1] (TAC heart, 10 mg kg^−1) is given as “significantly induced”. Also, in assay [1] (TAC hearts, 10 mg kg^−1), the “SUMOylation of SERCA2a versus vehicle control” value is “significantly increased”. Moreover, the “SERCA2a’s ATPase activity versus vehicle-treated hearts” value in assay [1] (TAC hearts, 10 mg kg^−1 (P=0.06)) was “somewhat higher”. The “SUMOylation of SERCA2a versus vehicle control” value in assay [1] (sham-operated group, 10 mg kg^−1 (P=0.07)) was “increasing trend”. Besides, in assay [2] (24 h), the “N106-induced increase in SUMOylation of SERCA2a in mutant SAE1-overexpressing cells versus overexpressed WT” value was “weaker”. The “Dose-dependent increases in SERCA2a SUMOylation in cells overexpressing mutants” value in assay [2] (different concentration of N106, 24 h) was “not observed”.
